Reference: the NIST ThermoML archive (doi:10.1021/je2006743)
± gives the expanded uncertainty stated by the source.

Conditions: 101.33 kPa, Liquid; for viscosity: Falling or rolling sphere viscometry; for mass density: Vibrating tube method

Row | Compound | viscosity (293.15 K) [mPa·s] | viscosity (303.15 K) [mPa·s] | mass density (313.14 K) [kg/m3] | viscosity (313.15 K) [mPa·s] | viscosity (323.15 K) [mPa·s] | viscosity (333.15 K) [mPa·s] | mass density (333.16 K) [kg/m3] | viscosity (343.15 K) [mPa·s] | mass density (323.13 K) [kg/m3] | further results
1 | O=S(=O)([N-]S(=O)(=O)C(F)(F)F)C(F)(F)F.OCCC[n+]1ccccc1 | 160 ± 9 | 92.2 ± 4.3 | 1532.1 ± 2.8 | 57.7 ± 2.5 | 38.2 ± 1.6 | 29.4 ± 1.2 | 1513.8 ± 2.7 | 22.8 ± 1 | – | mass density (293.15 K): 1551 ± 2.8 kg/m3; mass density (303.24 K): 1541.7 ± 2.8 kg/m3; mass density (323.15 K): 1522.9 ± 2.7 kg/m3; mass density (343.13 K): 1504.7 ± 2.7 kg/m3
2 | CCCC[N+]1(C)CCCC1.O=S(=O)([N-]S(=O)(=O)C(F)(F)F)C(F)(F)F | 101 ± 5 | 63.8 ± 2.7 | – | 41.8 ± 1.7 | 28.9 ± 1.2 | 23.5 ± 1 | – | 18.6 ± 0.8 | – | mass density (293.09 K): 1398 ± 0.7 kg/m3; mass density (302.89 K): 1389.2 ± 0.7 kg/m3; mass density (313.59 K): 1379.8 ± 0.7 kg/m3; mass density (323.38 K): 1371.3 ± 0.7 kg/m3; mass density (332.57 K): 1363.1 ± 0.7 kg/m3; mass density (342.84 K): 1354.6 ± 0.7 kg/m3
3 | CCCC[N+](C)(C)C.O=S(=O)([N-]S(=O)(=O)C(F)(F)F)C(F)(F)F [butyltrimethylammonium bis(trifluoromethylsulfonyl)imide] | 138 ± 7 | 82.3 ± 3.7 | – | 52.2 ± 2.2 | 35.5 ± 1.5 | 27.9 ± 1.2 | – | 21.5 ± 0.9 | 1370 ± 0.7 | mass density (293.26 K): 1396.5 ± 0.7 kg/m3; mass density (303.22 K): 1387.6 ± 0.7 kg/m3; mass density (313.03 K): 1379 ± 0.7 kg/m3; mass density (333.17 K): 1361.3 ± 0.7 kg/m3; mass density (343.18 K): 1352.8 ± 0.7 kg/m3
4 | CCC[N+](C)(C)CCO.O=S(=O)([N-]S(=O)(=O)C(F)(F)F)C(F)(F)F | 160 ± 9 | 92.7 ± 4.3 | – | 58.1 ± 2.4 | 38.7 ± 1.6 | 30.3 ± 1.3 | 1418.1 ± 0.8 | 22.9 ± 1 | – | mass density (293.16 K): 1453.6 ± 0.8 kg/m3; mass density (303.16 K): 1444.5 ± 0.8 kg/m3; mass density (313.11 K): 1435.7 ± 0.8 kg/m3; mass density (323.14 K): 1426.8 ± 0.8 kg/m3; mass density (343.14 K): 1408.7 ± 0.8 kg/m3
5 | CC(=O)OCC[N+](C)(C)C.O=S(=O)([N-]S(=O)(=O)C(F)(F)F)C(F)(F)F | 309 ± 22 | 162 ± 9 | – | 90.7 ± 4.2 | 56.8 ± 2.4 | 38.5 ± 1.6 | – | 27.5 ± 1.2 | – | mass density (293.18 K): 1486.9 ± 2.6 kg/m3; mass density (303.19 K): 1477.3 ± 2.6 kg/m3; mass density (313.21 K): 1468 ± 2.5 kg/m3; mass density (323.16 K): 1458.8 ± 2.5 kg/m3; mass density (333.19 K): 1449.7 ± 2.5 kg/m3; mass density (343.21 K): 1440.5 ± 2.4 kg/m3
6 | CCCCCC[n+]1cccc(C)c1.O=S(=O)([N-]S(=O)(=O)C(F)(F)F)C(F)(F)F | 105 ± 5 | 64.2 ± 2.7 | 1338.4 ± 0.7 | 41.2 ± 1.7 | 28.3 ± 1.2 | 22.5 ± 0.9 | – | 17.5 ± 0.7 | 1329.7 ± 0.7 | mass density (293.14 K): 1356.1 ± 0.7 kg/m3; mass density (303.17 K): 1347.1 ± 0.7 kg/m3; mass density (333.22 K): 1321 ± 0.7 kg/m3; mass density (343 K): 1312.9 ± 0.6 kg/m3
